Source: patent US20250223607A1, “HPPD Variants and Methods of Use” (BASF Agricultural Solutions Seed US LLC, priority 2013, published 2025)
Numbering of substitutions follows the chain as printed. In names and notes the source's numbering stands.

Key:
[1] = target: T1, HPPD enzyme “SEQ ID No. 32” (Arabidopsis thaliana, UniProt P93836); test: HPLC assay of HPPD in vitro kinetic properties (Km, Vmax, kcat; Ki, Kon, Koff); format: biochemical; conditions: for kinetic parameter / sensitivity of Arabidopsis thaliana HPPD in presence of inhibitor: 2 mM HPP
T1 construct: made in house; host or cells: E. coli BL21 (DE3)
T1 sequence (P93836 with tags, fused parts or gaps): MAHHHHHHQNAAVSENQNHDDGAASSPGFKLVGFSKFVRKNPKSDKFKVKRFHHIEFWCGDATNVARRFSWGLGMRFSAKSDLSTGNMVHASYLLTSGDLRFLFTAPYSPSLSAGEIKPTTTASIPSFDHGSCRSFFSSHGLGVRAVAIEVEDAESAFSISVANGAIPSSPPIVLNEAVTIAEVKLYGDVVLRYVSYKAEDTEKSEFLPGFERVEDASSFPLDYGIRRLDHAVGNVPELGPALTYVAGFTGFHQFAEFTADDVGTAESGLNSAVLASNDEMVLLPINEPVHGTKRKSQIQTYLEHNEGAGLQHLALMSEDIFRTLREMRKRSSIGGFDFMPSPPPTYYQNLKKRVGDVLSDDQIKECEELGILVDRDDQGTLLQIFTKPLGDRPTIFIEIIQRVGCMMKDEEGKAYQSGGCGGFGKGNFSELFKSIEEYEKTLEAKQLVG
Protocol: Km, Vmax, and kcat values for different HPPD enzyme preparations and Ki, K1=Kon, and K−1=Koff for different HPPD inhibitors were determined using a HPLC assay for measurements of HPPD activity. […] All assays were started by the addition of HPPD enzyme to the assay mixture and stopped at a series of times between 0 and 240 s by addition of 200 μl of the reaction mixture to reaction assay tubes containing 20 μl 10% perchloric acid. Precipitated protein was pelleted by a 5 minute centrifugation at 10,000 g.
For Km and Vmax value determinations the initial rates of the HPPD reaction at different substrate concentrations were determined from plots of HGA formed versus time and fitted to the Michaelis-Menten equation for unireactant enzymes using the ID Business Solutions Ltd. (www.idbs.com) XLfit software suite.

[2] = target: T2, Arabidopsis HPPD single point mutant SEQ ID No. 40 (Arabidopsis thaliana, UniProt P93836, V269A); test: biochemical; conditions: for pI50: V269A mutant (SEQ ID No. 40), 2 mM HPP, 3 minutes incubation
T2 construct: made in house; host or cells: E. coli BL21 (DE3)
From the text: (§1) In this content, pI50-value means the log value of the concentration of inhibitor necessary to inhibit 50% of the enzyme activity in molar concentration.

[3] = target: T3, Arabidopsis HPPD single point mutant SEQ ID No. 42 (Arabidopsis thaliana, UniProt P93836, P280A); test: biochemical; conditions: for pI50: P280A mutant (SEQ ID No. 42), 2 mM HPP, 3 minutes incubation
T3 construct: made in house; host or cells: E. coli BL21 (DE3)
From the text: as §1

[4] = target: T4, Arabidopsis HPPD single point mutant SEQ ID No. 44 (Arabidopsis thaliana, UniProt P93836, L368M); test: biochemical; conditions: for pI50: L368M mutant (SEQ ID No. 44), 2 mM HPP, 3 minutes incubation
T4 construct: made in house; host or cells: E. coli BL21 (DE3)
From the text: as §1

[5] = target: T5, Arabidopsis HPPD single point mutant SEQ ID No. 48 (Arabidopsis thaliana, UniProt P93836, K421Q); test: biochemical; conditions: for pI50: K421Q mutant (SEQ ID No. 48), 2 mM HPP, 3 minutes incubation
T5 construct: made in house; host or cells: E. coli BL21 (DE3)
From the text: as §1

[6] = target: T6, Arabidopsis HPPD single point mutant SEQ ID No. 50 (Arabidopsis thaliana, UniProt P93836, K421V); test: biochemical; conditions: for pI50: K421V mutant (SEQ ID No. 50), 2 mM HPP, 3 minutes incubation
T6 construct: made in house; host or cells: E. coli BL21 (DE3)
From the text: as §1

[7] = target: T7, Arabidopsis HPPD single point mutant SEQ ID No. 35 (Arabidopsis thaliana, UniProt P93836, E252S); test: biochemical; conditions: for pI50: E252S mutant, 2 mM HPP, 3 minutes incubation
T7 construct: made in house; host or cells: E. coli BL21 (DE3)
From the text: as §1

[8] = target: T8, Arabidopsis HPPD single point mutant SEQ ID No. 46 (Arabidopsis thaliana, UniProt P93836, K421I); test: biochemical; conditions: for pI50: K421I mutant (SEQ ID No. 46), 2 mM HPP, 3 minutes incubation
T8 construct: made in house; host or cells: E. coli BL21 (DE3)
From the text: as §1

[9] = target: T9, Arabidopsis thaliana wild type HPPD “SEQ ID No. 32” (Arabidopsis thaliana, UniProt P93836); test: pI50 determination from dose-response plots of HPPD activity (standard spectrophotometric assay of WO 2009/144079); format: biochemical
T9 construct: made in house; host or cells: E. coli BL21 (DE3)
T9 sequence (P93836 with tags, fused parts or gaps): T1 sequence (P93836 with tags, fused parts or gaps)
From the text: as §1

HPPD activity = test: Colorimetric screening test for active HPPD enzymes (production of brown color); format: cell-based, Escherichia coli; conditions: E. coli with pSE420-HPPDx, 5 mM L-Tyrosine, 16 hours at 37° C.
Protocol: (§2) A YT-broth-type culture medium with 1% agarose, 5 mM L-Tyrosine and 42 mM Succinate, which contains the selection agent for the vector pSE420 (Invitrogen, Karlsruhe, Germany) is poured into deep well plates. E. coli culture in the exponentional growth phase which contains the vector pSE420-HPPDx (HPPDx means any gene coding for a putative HPPD enzyme/protein) is applied to each well.
as §2, with “pSE420” for “pSE420 (Invitrogen, Karlsruhe, Germany)”, “(any” for “(HPPDx means any”
It can be concluded that the two HPPD mutants are not able to convert HPP into homogentisate. […] One can conclude that the amino acid positions 267 and 282 (referring to position in SEQ ID No. 2) are essential for HPPD activity.

[10] = SEQ ID No. 32 (wild type), 2 mM HPP, 3 minutes incubation
[11] = substrate HPP varied 10-400 μM, HPPD SEQ ID No. 32, HPLC assay

T5 sequence (P93836 other isoform, or with tags, fused parts or gaps K421Q): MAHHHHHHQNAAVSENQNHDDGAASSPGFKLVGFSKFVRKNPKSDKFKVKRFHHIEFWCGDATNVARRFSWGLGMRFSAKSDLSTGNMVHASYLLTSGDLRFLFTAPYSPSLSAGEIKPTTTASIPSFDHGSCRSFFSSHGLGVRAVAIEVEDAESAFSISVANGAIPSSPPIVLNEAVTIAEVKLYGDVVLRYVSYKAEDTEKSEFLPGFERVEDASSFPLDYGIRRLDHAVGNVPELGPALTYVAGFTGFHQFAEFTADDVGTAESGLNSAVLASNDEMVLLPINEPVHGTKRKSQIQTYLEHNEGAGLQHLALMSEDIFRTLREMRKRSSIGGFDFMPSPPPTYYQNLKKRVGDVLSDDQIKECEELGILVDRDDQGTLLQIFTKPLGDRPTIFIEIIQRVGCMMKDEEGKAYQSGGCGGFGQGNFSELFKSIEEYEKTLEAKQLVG
T4 sequence (P93836 other isoform, or with tags, fused parts or gaps L368M): as the sequence (P93836 other isoform, or with tags, fused parts or gaps K421Q) above, with L373M, Q426K counted along it
T2 sequence (P93836 other isoform, or with tags, fused parts or gaps V269A): as the sequence (P93836 other isoform, or with tags, fused parts or gaps K421Q) above, with V274A, Q426K counted along it
T7 sequence (P93836 whole entry E252S): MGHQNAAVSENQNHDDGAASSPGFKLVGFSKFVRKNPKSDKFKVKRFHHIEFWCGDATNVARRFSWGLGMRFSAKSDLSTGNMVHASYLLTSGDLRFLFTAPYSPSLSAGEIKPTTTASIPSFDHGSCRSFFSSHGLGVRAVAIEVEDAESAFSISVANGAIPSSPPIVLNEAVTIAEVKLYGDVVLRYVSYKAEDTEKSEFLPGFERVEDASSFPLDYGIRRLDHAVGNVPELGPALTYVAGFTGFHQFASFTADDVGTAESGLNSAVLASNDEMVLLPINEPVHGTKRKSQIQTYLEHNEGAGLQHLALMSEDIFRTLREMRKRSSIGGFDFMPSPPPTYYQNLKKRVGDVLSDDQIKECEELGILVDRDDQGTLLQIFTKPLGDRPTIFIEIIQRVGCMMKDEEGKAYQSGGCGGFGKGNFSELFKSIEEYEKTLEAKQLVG
T3 sequence (P93836 other isoform, or with tags, fused parts or gaps P280A): as the sequence (P93836 other isoform, or with tags, fused parts or gaps K421Q) above, with P285A, Q426K counted along it
T8 sequence (P93836 other isoform, or with tags, fused parts or gaps K421I): as the sequence (P93836 other isoform, or with tags, fused parts or gaps K421Q) above, with Q426I counted along it
T6 sequence (P93836 other isoform, or with tags, fused parts or gaps K421V): as the sequence (P93836 other isoform, or with tags, fused parts or gaps K421Q) above, with Q426V counted along it

Q: How did the “kinetic parameter / sensitivity of Arabidopsis thaliana HPPD in presence of inhibitor” value [1] turn out when CS(=O)(=O)c1ccc(C(=O)C2C(=O)CCCC2=O)c(Cl)c1COCC(F)(F)F [Tembotrione, 2-[2-chloro-4-(methylsulfonyl)-3-[(2,2,2,-tri-fluoroethoxy)methyl]benzoyl]-1,3-cyclo-hexanedione] was run?
A: comparable range

Q: What about the IC50 [2] of the same molecule?
A: < 2.51 µM

Q: What about the IC50 [3] of the same molecule?
A: < 2.51 µM

Q: And the IC50 [4]?
A: < 2.51 µM

Q: What about the IC50 [5] of the same molecule?
A: < 2.51 µM

Q: What about the IC50 [6] of the same molecule?
A: < 2.51 µM

Q: Which IC50 [5] does the source give for CS(=O)(=O)c1ccc(C(=O)C2C(=O)CCCC2=O)c([N+](=O)[O-])c1 [Mesotrione, 2-[4-(methylsulfonyl)-2-nitrobenzoyl]-1,3-cyclohexanedione] here?
A: < 2.51 µM

Q: COCCOCc1nc(C(F)(F)F)ccc1C(=O)C1=C(O)C2CCC(C2)C1=O (stereo not drawn) [Bicyclopyrone, 4-hydroxy-3-[[2-[(2-methoxyethoxy)methyl]-6-(trifluoromethyl)-3-pyridinyl]carbonyl]bicyclo[3.2.1]oct-3-en-2-one] was tested. Which IC50 [7] did it give?
A: 50.1 µM

Q: What about the IC50 [2] of the same molecule?
A: 50.1 µM

Q: What about the IC50 [3] of the same molecule?
A: 50.1 µM

Q: What about the IC50 [4] of the same molecule?
A: 31.6 µM

Q: What about the IC50 [8] of the same molecule?
A: 63.1 µM

Q: And the IC50 [5]?
A: 20 µM

Q: What about the IC50 [6] of the same molecule?
A: 63.1 µM

Q: How did the pI50 ([9]; 2 mM fixed HPP concentration, 3 minutes fixed incubation time, inhibitor 2.5 × 10^−6 to 2.5 × 10^−4 M) turn out when Cc1nn(C)c(O)c1C(=O)c1ccc(C(F)(F)F)cc1S(C)(=O)=O [Pyrasulfotole] was run?
A: 5.4

Q: What about the pI50 [9, 10] of the same molecule?
A: 5.4

Q: And the pI50 [7]?
A: 4.3

Q: What about the pI50 [2] of the same molecule?
A: 4.4

Q: What about the pI50 [3] of the same molecule?
A: 4.4

Q: And the pI50 [4]?
A: 5.0

Q: What about the pI50 [8] of the same molecule?
A: 4.3

Q: And the pI50 [5]?
A: 4.8

Q: And the pI50 [6]?
A: 4.4

Q: With Cc1ccc(S(=O)(=O)Oc2c(C(=O)c3ccc(Cl)cc3Cl)c(C)nn2C)cc1 [Pyrazolat] as the molecule, how does the pI50 [9, 10] read?
A: 5.4

Q: What about the pI50 [7] of the same molecule?
A: 4.7

Q: And the pI50 [2]?
A: 4.4

Q: What about the pI50 [3] of the same molecule?
A: 4.7

Q: And the pI50 [4]?
A: 4.9

Q: What about the pI50 [8] of the same molecule?
A: 4.5

Q: And the pI50 [5]?
A: 5.0

Q: What about the pI50 [6] of the same molecule?
A: 4.5

Q: With CS(=O)(=O)c1ccc(C(=O)C2C(=O)CCCC2=O)c(Cl)c1 [Sulcotrione, 2-[2-chloro-4-(methylsulfonyl)benzoyl]-1,3-cyclohexanedione] as the molecule, how does the IC50 [7] read?
A: 7.94 µM

Q: What about the IC50 [2] of the same molecule?
A: 10 µM

Q: And the IC50 [3]?
A: 10 µM

Q: And the IC50 [4]?
A: 6.31 µM

Q: What about the IC50 [8] of the same molecule?
A: 10 µM

Q: And the IC50 [5]?
A: < 2.51 µM

Q: And the IC50 [6]?
A: 7.94 µM

Q: O=C(O)C(=O)Cc1ccc(O)cc1 [HPP] was tested. Which Km [1, 11] did it give?
A: 6.3 µM

Q: What about the Vmax [1, 11] of the same molecule?
A: 1.2 µM

Q: With CS(=O)(=O)c1cc(C(F)(F)F)ccc1C(=O)C(C#N)C(=O)C1CC1 (stereo not drawn) [Diketonitrile, 2-cyano-3-cyclopropyl-1-(2-methylsulphonyl-4-trifluoromethylphenyl)-propane-1,3-dione] as the molecule, how does the “kinetic parameter / sensitivity of Arabidopsis thaliana HPPD in presence of inhibitor” value [1] read?
A: sensitive in the similar range as the carrot HPPD

Q: How did the IC50 [7] turn out when Cc1ccc(C(=O)COc2c(C(=O)c3ccc(Cl)c(C)c3Cl)c(C)nn2C)cc1 [Benzofenap] was run?
A: 6.31 µM

Q: And the IC50 [2]?
A: 6.31 µM

Q: And the IC50 [3]?
A: 6.31 µM

Q: And the IC50 [4]?
A: < 2.51 µM

Q: And the IC50 [8]?
A: 7.94 µM

Q: What about the IC50 [5] of the same molecule?
A: < 2.51 µM

Q: And the IC50 [6]?
A: 6.31 µM

B1: S267A: point mutant S267A of A. thaliana HPPD with N-terminal alanine and 6 histidines (protein)
chain: T1 sequence (P93836 with tags, fused parts or gaps) with S272A
modifications: N-terminal alanine and His6 tag; encoded by SEQ ID No. 33; SITE 2 MISC_FEATURE - Ala; MISC_FEATURE - His Tag made of 6 His
notes: point mutant S267A of A. thaliana HPPD with N-terminal alanine and 6 histidines
Q: Which “HPPD activity (production of brown color)” value (from here on “HPPD activity”) (HPPD activity) does the source give for B1 here?
A: inactive

B2: N282A: point mutant N282A of A. thaliana HPPD with N-terminal alanine and 6 histidines (protein)
chain: T1 sequence (P93836 with tags, fused parts or gaps) with N287A
modifications: N-terminal alanine and His6 tag; encoded by SEQ ID No. 35; SITE 2 MISC_FEATURE - Ala; MISC_FEATURE - His Tag made of 6 His
notes: point mutant N282A of A. thaliana HPPD with N-terminal alanine and 6 histidines
Q: Which “HPPD activity” value (HPPD activity) does the source give for B2 here?
A: inactive

B3: wild type HPPD: Arabidopsis thaliana wild type HPPD polypeptide with N-terminal alanine and 6 histidine amino acids (protein)
chain: T1 sequence (P93836 with tags, fused parts or gaps)
modifications: misc_feature 1..1353 Nucleic acid sequence encoding Arabidopsis HPPD plus containingat the 5' end a nucleic acid encoding an Ala and 6 His aminoacids; misc_feature 4..6 sequence coding for an Ala; misc_feature 7..24 sequence coding for an His Tag containing 6 His
Q: With B3 as the molecule, how does the “HPPD activity” value (HPPD activity) read?
A: strong brown color
